How the values were obtained:
[1] = Urine elimination studies; format: in vivo, Sprague-Dawley rats; conditions: rat, 1 mL of 2 mM in PBS by tail vein injection, mean ± SEM (n)
Protocol: Rat urine elimination studies are conducted in either conscious or anesthetized Sprague-Dawley rats. The test compound (1 mL, 2 mM in PBS) is administered by tail vein injection into conscious, restrained rats, with subsequent collection of urine at the time points of 2, 4 and 6 h post injection. The metabolic cages are washed with water to maximize the recovery of urine discharged at each time point. Alternatively, rats are anesthetized with 100 mg/kg Inactin intraperitoneally, a trachea tube is inserted to maintain adequate respiration, and 1 mL of test compound is injected into the lateral tail vein. Rats are placed on 37° C. heating pad during the entire experiment. At 6 h post injection, the abdomen is opened, and the urine is removed from the bladder using a 21 gauge needle and a 3 cc syringe. Quantitation of each compound in urine is performed via HPLC analysis using a set of external calibration standards and fluorescence detection. The percent recovery of compound in urine at each time point is calculated based on the balance of mass.

[2] = Invasive pharmacokinetic studies (plasma concentration); format: in vivo, Sprague-Dawley rats; conditions: rat plasma, 1 mL of 2 mM solution i.v., mean ± SEM (n)
Protocol: Male Sprague-Dawley rats (330-380 g) are anesthetized by Inactin (I.P.). Rats are surgically instrumented with a trachea tube (PE-190) to facilitate breathing and femoral artery and vein catheters (PE-50 filled with 20 units/mL heparinized saline) for blood sampling and drug administration respectively. After administration of 1 mL of a 2 mM solution of agent, approximately 200 μL blood is sampled and placed into a heparinized tube (Microtainer Brand Tube w/Lithium Heparin, BD 365971) at 0, 1, 6, 12, 18, 30, 45, 60, 90, 120 min. The concentration of compound in each centrifuged plasma sample is determined via HPLC analysis using a set of external calibration standards and fluorescence detection. The resulting pharmacokinetic parameters of the compound are analyzed using WinNonLin pharmacokinetic modeling software (Pharsight, Mountain View, Calif.). This method is used to detect renally excretable compounds of the invention and FIG. 8B provides a plot illustrating invasive PK (plasma concentration) as a function of time following delivery of a renally excretable compound.

[3] = Non-invasive optical pharmacokinetic studies (fluorescence at the ear); format: in vivo, Sprague-Dawley rats; conditions: rat ear fluorescence, 1 mL of 2 mM solution into tail vein; mean ± SEM (n)
Protocol: Male Sprague-Dawley rats (330-380 g) are anesthetized by Inactin (I.P.) or 2% Isoflurane gas anesthesia delivered by a small rodent gas anesthesia machine (RC2, Vetequip, Pleasanton, Calif.). The animals are placed on a heated board where temperature is maintained between 36-38° C. One ear lobe is glued flat to a glass slide positioned approximately 2 mm beneath a fiber optic bundle for recording fluorescence from a test compound passing through the ear. After a 100 second baseline recording, 1 mL of a 2 mM solution is injected into the tail-vein of the rat and the fluorescence signal corresponding to plasma and tissue distribution and subsequent renal clearance of the compound is monitored at the ear. The pharmacokinetic parameters of the compounds are analyzed using WinNonLin pharmacokinetic modeling software (Pharsight, Mountain View, Calif.) and Microsoft (Redmond, Wash.) Excel. This method is used to detect renally excretable compounds of the invention and FIG. 8A provides a plot illustrating non-invasive in vivo fluorescence as a function of time following delivery of a renally excretable compound.
A nominal 473 nm solid state laser source (100) is employed (Power Technology model LDCU12/7314). The laser source is directed into one leg (110) of a silica bifurcated fiber optic bundle (120) (Oriel #77565). The common end of this bifurcated bundle (130) is placed approximately 2 mm from the rat ear (140). The second leg of the bifurcated fiber optic bundle (150) is fitted with a collimating beam probe (160) (Oriel #77644). A long pass filter (170) (Semrock LP02-488RS-25) and narrow band interference filter (180) (Semrock FF01-593/40-25) are placed in front of a photomultiplier tube (190) (Hamamatsu photosensor module H7827-011).
A chopper (200) (Stanford Research Systems model SR540) is placed after the laser and before the launch into the bifurcated cable. The output of the photosensor is connected to a lock-in amplifier (210) (Stanford Research Systems model SR830). The lock-in output is digitized (220) (National Instruments NI-USB-6211) and the digitized data is acquired by computer using LabVIEW® data acquisition software (230).

[4] = Photophysical properties (fluorescence excitation/emission in PBS); format: physicochemical; conditions: 10 μM solution in PBS
Protocol: In general, renally excretable compounds are dissolved in PBS buffer to form a 2 mM stock solution. The UV absorbance properties are determined on a 100 μM solution in PBS using a UV-3101PC UV-Vis-NIR Scanning spectrophotometer system from Shimadzu. The fluorescence properties (λex, λem, and CPS at λem) are determined on a 10 μM solution in PBS using a Fluorolog-3 spectrofluorometer system from Jobin Yvon Horiba. The percent plasma protein binding is determined on a 20 μM compound solution in rat plasma incubated at 37° C. for 1 h. The separation of free from bound is made using an Amicon Centrifree YM-30 device (Regenerated Cellulose 30,000 MWCO) and a Z400K Refrigerated Universal Centrifuge from Hermle. The concentration of protein-free is determined via HPLC analysis using a set of external calibration standards and fluorescence detection.

| Compound | Percent found in Urine (6 hrs) [1] | clearance ([2]; male, Sprague-Dawley, iv, 1 mL of a 2 mM solution, read-out: Pharmacokinetics Clearance) | Pharmacokinetics T1/2β [2] | Tissue Clearance (Optical) T1/2β [3] | Photophysical Properties Emission λmax [4] | Photophysical Properties Excitation λmax [4] |
| --- | --- | --- | --- | --- | --- | --- |
| COCCOCCOCCOCCOCCOCCOCCOCCOCCOCCOCCOCCCNc1nc(C(=O)NCCOCCOCCOCCOCCOCCOCCOCCOCCOCCOCCOCCOCCOCCOCCOCCOCCOCCOCCOCCOCCOCCOCCOCCOC)c(NCCCOCCOCCOCCOCCOCCOCCOCCOCCOCCOCCOCCOC)nc1C(=O)NCCOCCOCCOCCOCCOCCOCCOCCOCCOCCOCCOCCOCCOCCOCCOCCOCCOCCOCCOCCOCCOCCOCCOCCOC [Compound 3, 3,6-Bis(2,5,8,11,14,17,20,23,26,29,32,35-dodecaoxaoctatriacontan-38-ylamino)-N^2,N^5-di(2,5,8,11,14,17,20,23,26,29,32,35,38,41,44,47,50,53,56,59,62,65,68,71-tetracosaoxatriheptacontan-73-yl)pyrazine-2,5-dicarboxamide] | 89 ± 2 (3) Percent | 2.5 ± 0.2 mL/min | 30.5 ± 3.2 (3) min | 20.4 ± 2.0 (4) min | 602 nm | 499 nm |
| COCCOCCOCCOCCOCCOCCOCCOCCOCCOCCOCCOCCOCCOCCOCCOCCOCCOCCOCCOCCOCCOCCOCCOCCCNc1nc(C(=O)NCCOCCOCCOCCOCCOCCOCCOCCOCCOCCOCCOCCOCCOCCOCCOCCOCCOCCOCCOCCOCCOCCOCCOCCOC)c(NCCCOCCOCCOCCOCCOCCOCCOCCOCCOCCOCCOCCOCCOCCOCCOCCOCCOCCOCCOCCOCCOCCOCCOCCOC)nc1C(=O)NCCOCCOCCOCCOCCOCCOCCOCCOCCOCCOCCOCCOCCOCCOCCOCCOCCOCCOCCOCCOCCOCCOCCOCCOC [Compound 5, 3,6-bis(2,5,8,11,14,17,20,23,26,29,32,35,38,41,44,47,50,53,56,59,62,65,68,71-tetracosaoxatetraheptacontan-74-ylamino)-N^2,N^5-di(2,5,8,11,14,17,20,23,26,29,32,35,38,41,44,47,50,53,56,59,62,65,68,71-tetracosaoxatriheptacontan-73-yl)pyrazine-2,5-dicarboxamide] | 86 ± 7 (3) Percent | – | – | 17.6 ± 0.9 (4) min | 603 nm | 495 nm |
| COCCOCCOCCOCCOCCOCCOCCOCCCNc1nc(C(=O)NCCOCCOCCOCCOCCOCCOCCOCCOCCOCCOCCOCCOCCOCCOCCOCCOCCOCCOCCOCCOCCOCCOCCOCCOC)c(NCCCOCCOCCOCCOCCOCCOCCOCCOC)nc1C(=O)NCCOCCOCCOCCOCCOCCOCCOCCOCCOCCOCCOCCOCCOCCOCCOCCOCCOCCOCCOCCOCCOCCOCCOCCOC [Compound 6, 3,6-bis(2,5,8,11,14,17,20,23-octaoxahexacosan-26-ylamino)-N^2,N^5-di(2,5,8,11,14,17,20,23,26,29,32,35,38,41,44,47,50,53,56,59,62,65,68,71-tetracosaoxatriheptacontan-73-yl)pyrazine-2,5-dicarboxamide] | 92 ± 4 (3) Percent | – | – | 19.1 ± 0.8 (4) min | 603 nm | 498 nm |
| COCCOCCOCCOCCCNc1nc(C(=O)NCCOCCOCCOCCOCCOCCOCCOCCOCCOCCOCCOCCOCCOCCOCCOCCOCCOCCOCCOCCOCCOCCOCCOCCOC)c(NCCCOCCOCCOCCOC)nc1C(=O)NCCOCCOCCOCCOCCOCCOCCOCCOCCOCCOCCOCCOCCOCCOCCOCCOCCOCCOCCOCCOCCOCCOCCOCCOC [Compound 7, 3,6-Bis(2,5,8,11-tetraoxatetradecan-14-ylamino)-N^2,N^5-di(2,5,8,11,14,17,20,23,26,29,32,35,38,41,44,47,50,53,56,59,62,65,68,71-tetracosaoxatriheptacontan-73-yl)pyrazine-2,5-dicarboxamide] | 97 ± 2 (3) Percent | – | – | 14.6 ± 1.1 (4) min | 602 nm | 494 nm |
| COCCOCCOCCOCCOCCOCCOCCOCCCNc1nc(C(=O)N[C@H](CO)C(=O)O)c(NCCCOCCOCCOCCOCCOCCOCCOCCOC)nc1C(=O)N[C@H](CO)C(=O)O [Compound 8, 3,6-Bis(2,5,8,11,14,17,20,23-octaoxahexacosan-26-ylamino)-N^2,N^5-bis[(R)-1-carboxy-2-hydroxyethyl]pyrazine-2,5-dicarboxamide] | 61 ± 7 (3) Percent | – | – | – | – | – |
| COCCOCCOCCOCCCNc1nc(C(=O)NCC(O)CO)c(NCCCOCCOCCOCCOC)nc1C(=O)NCC(O)CO (centres unmarked) [Compound 13, 3,6-Bis(2,5,8,11-tetraoxatetradecan-14-ylamino)-N^2,N^5-bis(2,3-dihydroxypropyl)pyrazine-2,5-dicarboxamide] | 29 ± 2 (3) Percent | – | – | – | – | – |
| COCCOCCOCCOCCCNc1nc(C(=O)NCCOCCOCCOCCOCCOCCOCCOCCOCCOCCOCCOCCOC)c(NCCCOCCOCCOCCOC)nc1C(=O)NCCOCCOCCOCCOCCOCCOCCOCCOCCOCCOCCOCCOC [Compound 15, 3,6-Bis(2,5,8,11-tetraoxatetradecan-14-ylamino)-N^2,N^5-di(2,5,8,11,14,17,20,23,26,29,32,35-dodecaoxaheptatriacontan-37-yl)pyrazine-2,5-dicarboxamide] | 86 ± 1 (3) Percent | – | – | – | 603 nm | 492 nm |

From US9005581B2, “Modified pyrazine derivatives and uses thereof” (MediBeacon, LLC, priority 2008, dated 2015)
